Measurements reported in patent publication US20220105029A1, “BIODEGRADABLE CHITOSAN MICRONEEDLE PATCH FOR TRANSDERMAL DELIVERY FOR LIVESTOCK PAIN MANAGEMENT” (THE BOARD OF TRUSTEES OF THE UNIVERSITY OF ARKANSAS, priority 2020, published 2022).

How the values were obtained:
[1] = Solubility of meloxicam in solvents; assay type: physicochemical
[2] = cited from earlier work

## Cc1cnc(NC(=O)C2=C(O)c3ccccc3S(=O)(=O)N2C)s1 [meloxicam]
[1]
  solubility in acetic acid: not soluble
[2]
  solubility in acids: not dissolving in acids
  solubility in dimethyl sulfoxide (DMSO): dissolves completely
